Patent publication US9175077B2, “Nucleic acids encoding biologically active polypeptides derived from a novel early stage pregnancy factor designated maternin (MA)” (NOBEL BIOSCIENCES LLC, priority 1999, dated 2015)

Assays:
Acutely bled rats = format: in vivo, Sprague-Dawley rats; settings: i.p. 24 and 48 hrs after 35-40% blood loss
Source text: To delineate the effects of MA on hematopoiesis in the absence of any external bone marrow suppression, blood (35-40% of total blood volume) was removed from five Sprague-Dawley rats by intracardiac puncture. […] Each panel illustrates the mean values for the three animals treated with MAS1. Thus, MA and related derivatives have potent pro-hematopoietic effects.

[1] = tested on: prostate carcinoma cell line PC4; test: Confocal microscopy apoptosis; format: cell-based, human; settings: 200 ng/ml; 24 hrs
Experimental: (§1) More extensive studies of the effects of MA and with truncated synthetic forms of MA (MAS) on a wide range of other human tumor cells were carried out using three-dimensional confocal microscopy. Cells were cultured and then seeded onto gelatinized glass chamber slides and incubated 24 hrs with the various test materials. The slides were then fixed with formalin and treated serially with Triton X-100 (0.01%) for 10 min at 25°, 0.4 ug/ml fluorescein isothiocyanate (FITC)-labeled Phalloidin (Sigma Chem. Co.) at room temperature for 30 min to bind actin, washed with PBS and the DNA stained with Propidium iodide (PI) (0.5 ug·ml) (Sigma Chemical Co.), for 15 min. The stained slides were washed and mounted on slow fade (Molecular Probes, Inc., Eugene, Oreg.) and examined through a dual emission filter XF53 (Omega, Inc., Brattlesboro, Va.) by fluorescent microscopy. In some experiments only DNA staining was performed. In these instances Triton X-100 was not used. The slides were stained with PI and examined for cell morphology and chromatin degradation under 3D confocal microscopy.

Ewing's sarcoma = test: Confocal microscopy apoptosis; format: cell-based, human; settings: 200 ng/ml; 24 hrs
Experimental: as §1

melanoma HTB67 = test: Confocal microscopy apoptosis; format: cell-based, human; settings: 200 ng/ml; 24 hrs
Experimental: as §1

carcinoma of the colon = test: Confocal microscopy apoptosis; format: cell-based, human; settings: 200 ng/ml; 24 hrs
Experimental: as §1

[2] = tested on: carcinoma of the kidney HTB46; test: Confocal microscopy apoptosis; format: cell-based, human; settings: 200 ng/ml; 24 hrs
Experimental: as §1

[3] = tested on: prostate carcinoma cell line PC3; test: Confocal microscopy apoptosis; format: cell-based, human; settings: 200 ng/ml; 24 hrs
Experimental: as §1

[4] = tested on: carcinoma of the lung HTB184; test: Confocal microscopy apoptosis; format: cell-based, human; settings: 200 ng/ml; 24 hrs
Experimental: as §1

[5] = tested on: carcinoma of the pancreas CRL 1682; test: Confocal microscopy apoptosis; format: cell-based, human; settings: 200 ng/ml; 24 hrs
Experimental: as §1

fibrosarcoma 4TB166 = test: Confocal microscopy apoptosis; format: cell-based, human; settings: 200 ng/ml; 24 hrs
Experimental: as §1

[6] = tested on: leukemia and lymphoma cell lines: HUT78, DAVDI, HG, SULTAN, T-cell lymphoma; test: Confocal microscopy apoptosis; format: cell-based, human; settings: 200 ng/ml; 24 hrs
Experimental: as §1

gliobastoma HTB16 = test: Confocal microscopy apoptosis; format: cell-based, human; settings: 200 ng/ml; 24 hrs
Experimental: as §1

KS Y-1 cells = test: Confocal microscopy apoptosis; format: cell-based, human; settings: 200 ng/ml; 24 hrs
Experimental: as §1

[7] = tested on: carcinoma of the breast HTB124; test: Confocal microscopy apoptosis; format: cell-based, human; settings: 200 ng/ml; 24 hrs
Experimental: as §1

[8] = tested on: human primitive hematopoietic stem cells; test: Long term cultures (LTC-IC, stroma-free) of CD34+, CD38− cells from human BMMC; format: cell-based
Experimental: In the human system, a long-term culture-initiating assay (LTC-IC) can be used to detect cells that can generate myeloid clonogenic cells (CFC/colony forming cells) in long-term cultures for a minimum of 5 weeks. Bone marrow stromal was produced by culturing 107 fresh BM-MNC in a T25 flash for at least 2 weeks in 5 mL stromal medium; 12.5% horse [HS] and 12.5% fetal calf serum [FCS]; both from hyclone [Logan, Utah], Iscove's modified Dulbecco's medium [IMDM, GIBCO-BRL], 2-mercaptoethanol [Sigma, st. Louis, Mo.], 10^−6 mol/L hydrocortisone [Sigma] and penicillin/streptomycine.
One or 2 days before co-cultures, bone marrow stroma was irradiated with 15Gy and plated at 7×10^3/cm^2 in 24-well plates to form pre-established stromal layers for the long-term cultures. Limiting dilution was 1 to 1000 CD34+ bone marrow/cord blood cells and equivalent aliquots, i.e., limiting dilutions of the cells grown in long-term cultures stroma-free cultures after 2 to 20 weeks were seeded on top of the irradiated bone marrow stroma in culture medium containing IMDM, 12.5% HS, 12.5% FCS, 2-mercptoethanol, and 10^−6 mon-hydrocortisone for 5 weeks LTC-IC assay period. Non-adherent cells were removed from the cultures, combined with the corresponding trypsinized adherent cells, washed and assayed for colony forming units (CFU-Cs) in methylcellulose medium containing 1.3% methylcellulose (Fluka Chemilka Biochemika, buck\hs, Switzerland), 30% FCS, EPO (3 U/ml), IL-3 (20 ng/ml), G-CSF (20 ng/ml), GM-CSF (20 ng/ml) and KL (c-kit, 50 ng/ml). These cultures were incubated at 37° C. and colonies were scored 2 to 3 weeks later. LTC-IC enumeration was based on the number of CFU-C scored in the limiting assays [LDA] and another technique.
Stroma-free long-term cultures were performed as follows. 2 to 10×10^3 CD34+/CD34^−CD38^− from bone marrow/CB/PBMC cells were cultured in quadrutriplicate flat bottomed 24 well plates in 1 ml to of IMDM supplemented with 10% FCS and the following cytokines: IL-3 (10 ng/ml), IL-6 (10 ng/ml), KL [c-kit 50 ng/ml, FL (50 ng/ml) and TPO (10 U/ml), which added, alone or in combination of two or more factors, to each series of microwells twice a week. The wells were grown at 37° C. and share a number of features with in vivo murine long-term repopulating cells. These include assay for cobblestone areas colony forming cells (CAFC), high proliferative potentials colony-forming cells (HPP-CFC), CFU-GEMM, CFU-B1 (blast colony forming units).

[9] = Lethally irradiated rats and mice; settings: treated at time of radiation, 3×/week for 4 weeks
Experimental: In order to determine in vivo relevance of the prohematopoietic effects of MA treated rats and mice under several conditions of bone marrow suppression. First, the effects of native MA and pMA and of the synthetic 15-mer MAS1 were treated for their capacity to reduce or prevent the effects of lethal doses of gamma irradiation. […] MA, pMA, MAS1, and various control polypeptides were given 48 and 24 hrs before, during, or 24 hrs after radiation. The animals treated prior to radiation received either 100 ng vs. 1 ug (rats) or 50 ng vs. 500 ng (mice) as 2 subcutaneous injections.
It is not yet possible to determine the precise molar dose of pMA because of less certainty on its full-length sequence.
To ascertain that the MA effect did promote hematopoiesis in these animals we examined the bone marrow for cellularity and colony formation and determined peripheral blood counts.

[10] = Lethal dose taxol in Sprague-Dawley rats; format: in vivo; settings: for survival of pretreated animals: low dose, two doses 24 and 48 hrs before taxol; for survival maintained to day 80 / survival on day 5: therapy maintained 28 days; for survival on day 5: low or high dose
Experimental: Sprague-Dawley rats were given taxol in large lethal doses, 4.5 mg in one I.P. inoculation. […] Bone marrow suppression can also be a side effect of the clinical use of taxol.^179 As in the radiation experiments, either MA, pMA, MAS1, or various polypeptide controls were given subcutaneously only in two doses 24 and 48 hrs before taxol treatment or were given 3×/week for 4 weeks. […]

[11] = tested on: primary human tumor cells; test: Short-term cultured primary human tumor cells, growth and apoptosis; format: cell-based; settings: 200 ng/ml; 3 days culture; 10% serum
Source text: Because cell lines might be more susceptible to growth inhibition and apoptosis, the effects of MA on short-term cultured human tumor cells were investigated. The cells were obtained from biopsied specimens and immediately cultured (primary cultures). The results were similar to the results with tumor cell lines. […] FIG. 3, Panels A and B are representative results with primary breast and prostate carcinomas respectively. These pro-apoptotic effects of MA on human tumor cells were with 10% serum rather than the lower concentrations sometimes used to make cells more susceptible to apoptosis.
More extensive studies of primary human tumor cells were carried out utilizing confocal microscopy.
With the exception of the kidney carcinoma, which was a biopsy sample direct from the tumor, the samples were from pleural effusions which developed after metastasis to the lung. The breast, prostate, and colon carcinomas were freshly obtained and immediately cultured, whereas the lung and kidney carcinomas went through 22 and 18 passes respectively before they were used in these studies. All cells were examined after 3 days culture in the presence or absence of MA (200 ng/ml) or other treatments. […]

human tumor cells = format: cell-based; settings: controls at equimolar or 5 to 10× greater concentrations
Experimental: The anti-tumor activities of MA were assessed in several in vitro and in vivo systems using published methods.^166 In vitro studies were with a wide variety of human tumor cell lines as well as short-term cultures of cells from biopsy samples obtained from tumors. The assays included effects of MA on colony formation, cell number and viability (trypan blue), and apoptosis. Four measures of microscopy were used. In vivo studies included the effects of MA on tumors induced in immunodeficient mice by xenotransplanted various human neoplastic cells, spontaneous neoplasms of immuno-competent mice and rats, and a few standard tumors in immuno-competent mice. Representative examples are presented.
Cells (5×10^5/ml) were seeded in modified Eagle's medium supplemented with 10% FCS, 10% conditioned medium form PHA stimulated human lymphocytes, 2 mM glutamine in 0.8% V/V methylcellulose with or without various treatments in a final volume of 1.0 ml. Then 0.1 ml aliquots were seeded in 96 well flat bottom microtest plates and incubated at 37° C. in 5% CO2 in air for 7 days. Aggregates containing 50 cells or more were scored as colonies.
5×10^5 cells were seeded in triplicate on 24 gelatin coated wells in conditions as described for Panel A and treated with the indicated test materials. After 3 days the cells were dislodged from their monolayers by gentle pipetting with cell dissociation buffer (Life Technologies), counted after trypan blue staining and aliquots examined for Annexin V staining by indirect IFA […].
Studies of the anti-tumor cell effects of MA were extended to other carcinomas, melanoma, some hematopoietic tumors, and carcinomas of the colon, prostate, breast, lung, brain, pancreas, and kidney-using cell lines from these tumors. […] Many more types of tumor cells were studied utilizing other assays (see below).

HIV-1 gene expression = test: HIV-1 transgenic mice, pups feeding from treated mothers; format: in vivo
Source text: The transgenic mice contain 5.1 kb of the HIV-1 proviral genome, lacking gag and pol genes and 2.3 kb of vector.^172 The newly developed transgenic rat contains the same HIV-1 sequences and vector.
Twenty-four hours after birth the mothers were either inoculated subcutaneously daily for 10 days or received an implanted osmotic pump delivering 30-150 pmoles of either native or synthetic MA or pMA. Various control polypeptides were used at equimolar or vast molar excess. The newborn pups were then allowed to feed from the foster mother breast milk over the entire period. Since the animals are at risk from needle inoculation, breastfeeding was the chosen route for MA administration.
In these experiments total RNA was extracted from samples of skin RNA206 10 days after birth of MA treated and untreated mice. One ug of RNA was reverse transcribed into cDNA using random hexamer primer and […] reverse transcriptase (Life Technologies, Inc.) in a final vol. Of 30 ul. Three ul of each reaction was used for PCR amplification of the HIV-1 gene sequences (env, tat, nef, and rev) as described […], and glyceraldehyde 3-phosphate dehydrogenase (GAPDH) was amplified from each sample for normalization. After 25 cycles, 10% of the products were resolved by electrophoresis on 2% agarose gels, transferred to nitrocellulose membranes by Southern blotting, and hybridized to fluorescein isthiocyanate-labeled oligonucleotide probes complementary to internal sequences of the amplicons […]. Bound probes were detected by chemiluminescence (Amersham) and relative mRNA levels determined by densitrometry after normalization with GAPDH mRNA levels.

With “VRFESIRLPGCPRGV (listed as Homo sapiens) [MAS1]” the “recovery of peripheral blood cells” value (Acutely bled rats) was “prompt recovery”, the induction of apoptosis [1] was “induced apoptosis” and the induction of apoptosis (Ewing's sarcoma) was “induced apoptosis”. The induction of apoptosis (melanoma HTB67) was “induced apoptosis”, the induction of apoptosis (carcinoma of the colon) was “induced apoptosis” and the induction of apoptosis [2] was “induced apoptosis”. For the same substance, the induction of apoptosis [3] was “induced apoptosis”, the induction of apoptosis [4] was “induced apoptosis” and the induction of apoptosis [5] was “induced apoptosis”. For the same substance, the induction of apoptosis (fibrosarcoma 4TB166) was “induced apoptosis”, the induction of apoptosis [6] was “induced apoptosis” and the induction of apoptosis (gliobastoma HTB16) was “induced apoptosis”. For the same substance, the induction of apoptosis (KS Y-1 cells) was “induced apoptosis”, the induction of apoptosis [7] was “induced apoptosis” and the “Rx MAS1: % of CD1” value [8] was 35%. For the same substance, the “Rx MAS1: % of CD68” value [8] was 27%, the survival ([9]; higher dose, over 100 days) was 100% and the survival ([9]; lowest doses) was 80%. The “survival of pretreated animals” value [10] was “Sixty-percent”, the “survival maintained to day 80” value ([10]; high dose (1000 ng)) was about 80% and the “survival maintained to day 80” value ([10]; low dose (100 ng)) was “about 60%”. For the same substance, the “survival on day 5” value [10] was 100%.

For “pMA: natural peptide 38 amino acids in length, β-hCG 55-92 (SEQ ID NO: 3) (VVCNYRDVRFESIRLPGCPRGVNPVVSYAVALSCQCAL; listed as Homo sapiens)”, the “growth inhibition and apoptosis of primary human tumor cells” value [11] was “effective”, the “inhibition of growth / induction of apoptosis of neoplastic cells” value (human tumor cells) was “induce apoptotic death” and the “weight over the ten day period” value (HIV-1 gene expression; 30-150 pmoles) was “quadrupled their weight”. The “survival / development of pups (qualitative)” value (HIV-1 gene expression; mothers treated, pups breast fed) was “survived”, the “HIV-1 viral expression in tissues” value (HIV-1 gene expression; mouse, in vivo) was “marked inhibition of viral expression” and the survival ([9]; higher dose, over 100 days) was 100%. For the same substance, the “survival of pretreated animals” value [10] was “Sixty-percent”, the “survival maintained to day 80” value ([10]; high dose (1000 ng)) was about 80% and the “survival maintained to day 80” value ([10]; low dose (100 ng)) was “about 60%”. The “survival on day 5” value [10] was 100%.
